US6111103A, “Diresorcinyl-alkoxy- and -aryloxy-s-triazines” (Ciba Specialty Chemicals Corporation, priority 1998, dated 2000)

Key:
[1] = UV/Vis absorption (λmax, ε); assay type: physicochemical; set-up: ε at λmax: unit not given beside the values
[2] = Solubility in ethanol (25° C.); assay type: physicochemical

SMILES | UV/Vis λmax ([1]; Dioxan) [nm] | ε at λmax ([1]; Dioxan) | Solubility in ethanol [2] [%] | UV/Vis λmax ([1]; EtOH) [nm] | ε at λmax ([1]; EtOH)
COc1ccc(-c2nc(OC)nc(-c3ccc(OC)cc3O)n2)c(O)c1 [compound 112] | 347 | 37680 |  |  | 
CCOc1nc(-c2ccc(O)cc2O)nc(-c2ccc(O)cc2O)n1 [compound 108] |  |  | 0.17 | 350 | 36761
COc1nc(-c2ccc(O)cc2O)nc(-c2ccc(O)cc2O)n1 [compound 107] |  |  | 0.08 | 350 | 36949
CCCCCCCCCCCCC(CCCCCCCCCC)COc1nc(-c2ccc(OC)cc2O)nc(-c2ccc(OC)cc2O)n1 (stereo not drawn) [compound 110] | 347 | 36219 |  |  | 
CCCCCCCCC(CCCCCC)COc1nc(-c2ccc(O)cc2O)nc(-c2ccc(O)cc2O)n1 (stereo not drawn) [compound 104] |  |  |  | 351 | 36148
CCCCCCCCCCCCC(CCCCCCCCCC)COc1nc(-c2ccc(O)cc2O)nc(-c2ccc(O)cc2O)n1 (stereo not drawn) [compound 101] |  |  |  | 350 | 34482
CCCCCCCCCCCCCCCCCCOc1nc(-c2ccc(O)cc2O)nc(-c2ccc(O)cc2O)n1 [compound 105] |  |  |  | 350 | 31662
CCCCCCCCC(CCCCCC)COc1nc(-c2ccc(OC)cc2O)nc(-c2ccc(OC)cc2O)n1 (stereo not drawn) [compound 111] |  |  |  | 348 | 34123
CCCCC(CC)COc1nc(-c2ccc(O)cc2O)nc(-c2ccc(O)cc2O)n1 (stereo not drawn) [compound 102] |  |  | 1.50 | 350 | 39177
